Measured values as given in paper PMC4965013, “Open Source Drug Discovery with the Malaria Box Compound Collection for Neglected Diseases and Beyond” (PLoS Pathogens, 2016).
One block for each molecule: values may come before it.

Tests used:
5-HT4 receptor = molecular target: T1, 5-HT4 receptor (Homo sapiens, UniProt Q13639); test: 5-HT4 radioligand binding; details: reference compound
T1 construct: expressed in transfected cells; host or cells: HeLa

[1] = set-up: method as in ref WuXi; details: WuXi's Acceptance Range For Positive Controls; ref WuXi; cited from earlier work
Dictyostelium discoideum = details: 7.5 µM; ref [150]; cited from earlier work
CYP 2C19 = details: cited from earlier work
M3 receptor = molecular target: T2, M3 receptor (Homo sapiens, UniProt P20309); test: M3 radioligand binding; details: reference compound
T2 construct: purchased Perkin Elmer

Cryptosporidium parvum = Cryptosporidium parvum high content microscopy in HCT-8
Mycobacterium marinum = test: M. marinum antibiotic assay; format: cell-based; details: 10µM
Method: Columns FA-FC: Soldati Group (data presented first in this paper). M. marinum, D. discoideum, and Acathamoeba castellani assays. Each compound of the Malaria Box has been assayed at 10 µM in all three assays. First, the antibiotic activity was assayed directly against Mycobacterium marinum in its culture medium. Second, the toxicity and growth inhibitory effect of the compounds was assayed against the amoeba Dictyostelium discoideum in its culture medium. Finally, the “in cellulo” anti-infective activity of each compound was tested using the intracellular infection system Acanthamoeba castellanii-M. marinum. Values have been normalized using the DMSO carrier. For each assay, values have been normalized to 1.00 using the DMSO carrier, which has no detectable effect on D. discoideum nor M. marinum growth, while rifabutin was used as positive control for the antibiotic assay and the infection assay, as it abolishes M. marinum growth (normalized value under 0.10) in broth at 10 µM and intracellularly at 30 µM [150].

[2] = system: Mycobacterium marinum in Acanthamoeba castellanii; set-up: method as in ref [150] (a number printed in a supplementary file, which may have a reference list of its own: not looked up in the article's list); details: 30 µM; ref [150]; cited from earlier work
[3] = cited from earlier work

T1 sequence (Q13639 whole entry): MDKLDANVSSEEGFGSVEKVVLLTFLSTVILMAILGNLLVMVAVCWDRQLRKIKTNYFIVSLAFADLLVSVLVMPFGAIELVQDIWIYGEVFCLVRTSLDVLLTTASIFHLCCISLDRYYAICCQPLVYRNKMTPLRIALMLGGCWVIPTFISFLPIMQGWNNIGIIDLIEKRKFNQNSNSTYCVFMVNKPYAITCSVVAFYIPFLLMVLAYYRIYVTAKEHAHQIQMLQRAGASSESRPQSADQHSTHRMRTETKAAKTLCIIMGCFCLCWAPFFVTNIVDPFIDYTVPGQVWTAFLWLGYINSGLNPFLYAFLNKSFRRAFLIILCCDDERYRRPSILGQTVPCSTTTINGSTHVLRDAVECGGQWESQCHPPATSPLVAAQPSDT
T2 sequence (P20309 whole entry): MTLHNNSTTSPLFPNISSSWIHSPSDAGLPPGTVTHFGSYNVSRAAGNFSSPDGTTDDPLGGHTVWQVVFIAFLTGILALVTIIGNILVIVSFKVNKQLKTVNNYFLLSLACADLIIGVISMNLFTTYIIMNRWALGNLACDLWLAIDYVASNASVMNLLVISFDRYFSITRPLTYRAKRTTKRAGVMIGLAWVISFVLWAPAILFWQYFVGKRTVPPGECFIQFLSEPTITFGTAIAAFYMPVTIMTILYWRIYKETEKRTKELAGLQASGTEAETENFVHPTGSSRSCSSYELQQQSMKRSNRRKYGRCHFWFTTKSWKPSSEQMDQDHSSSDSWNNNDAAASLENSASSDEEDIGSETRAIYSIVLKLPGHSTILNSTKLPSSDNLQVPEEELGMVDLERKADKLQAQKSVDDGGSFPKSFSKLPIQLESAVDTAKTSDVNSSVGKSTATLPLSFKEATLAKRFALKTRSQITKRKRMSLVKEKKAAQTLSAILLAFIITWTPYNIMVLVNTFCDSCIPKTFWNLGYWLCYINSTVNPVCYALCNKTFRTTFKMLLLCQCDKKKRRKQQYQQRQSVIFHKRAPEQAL

- Ki (5-HT4 receptor): 0.00045 µM
Structure (SMILES): Cn1cc(C(=O)OCC2CCN(CCNS(C)(=O)=O)CC2)c2ccccc21 [GR113808]

Structure (SMILES): NC(=O)N1c2ccccc2C=Cc2ccccc21 [Carbamazepine]
- Kinetic Solubility pH=7.4 [1]: 43 ± 4 µg/mL

Structure (SMILES): CN1CCC[C@H]1c1cccnc1 [Nicotine]
- D. discoideum growth, positive control (Dictyostelium discoideum): abolishes its growth

Structure (SMILES): CCC1(c2ccccc2)NC(=O)N(Cc2ccccc2)C1=O (single isomer, unassigned; (+)) [(+)-N-3-benzylnirvanol]
- CYP 2C19 IC50 Acceptance Range (CYP 2C19): 0.100~0.350 μM

- Ki (M3 receptor): 0.0344 µM
Structure (SMILES): O[Si](CCCN1CCCCC1)(c1ccc(F)cc1)C1CCCCC1 (stereo not drawn) [p-F-HHSiD]

Structure (SMILES): O=C(Nc1ccc(Cl)cc1)N1CCN(c2ccc3nncn3n2)CC1 [MMV665917]
- Selectivity Index C. parvum over mammalian cells (Cryptosporidium parvum): > 20

Structure (SMILES): CO[C@H]1/C=C/O[C@@]2(C)Oc3c(C)c(O)c4c(c3C2=O)C2=NC3(CCN(CC(C)C)CC3)NC2=C(NC(=O)/C(C)=C\C=C\[C@H](C)[C@H](O)[C@@H](C)[C@@H](O)[C@@H](C)[C@H](OC(C)=O)[C@@H]1C)C4=O [rifabutin, reference compound]
- Mycobacterium marinum relative growth DMSO=1 Antibiotic Assay (Mycobacterium marinum): under 0.10
- M. marinum intracellular growth, normalized value [2]: under 0.10

Structure (SMILES): CC(=O)CC(c1ccccc1)c1c(O)c2ccccc2oc1=O (stereo not drawn) [Warfarin]
- Plasma Protein Binding Bound% Human [3]: >98%
